Entries after “also recorded” stand apart in the source; their conditions may differ.
Key:
Format in all cases: cell-based, human
H69 cells [1] = experiment: Immunoblot of STING in H69 cells after GSK126 treatment
Source text: Immunoblot of STING, histone H3K27me3 and β-actin levels in H69 cells after GSK126 (EZH2 inhibitor) treatment at the indicated concentrations and for the indicated number of days.
(§1) Protein was isolated from cell lines and measured by BCA (Pierce Biotechnology). Protein extracts were subjected to polyacrylamide gel electrophoresis using the 4%-12% NuPAGE gel system (Invitrogen, Carlsbad, CA), transferred to PVDF (Millipore) membranes, and immunoblotted using antibodies that specifically recognize TBK1 (#3013), S172 pTBK1 (#5483), pERK1/2 (#4370), ERK1/2 (#9107), S473 pAKT (#4060), AKT (#9272), S396 pIRF3 (#4947), IRF3 (#4302), Y701 pSTAT1 (#9171), STAT1 (#9172), AXL (#8661), EZH2 (#5246), STING (#13647), MAVS (#3993), E-Cadherin (#3195), Vimentin (#5741), β-Actin (#4970), Tubulin (#2144) (Cell Signaling Technologies, Danvers, MA) and IKKε (#14907) (Sigma-Aldrich, St. Louis, MO).

H69 cells [2] = experiment: EZH2 inhibition of H69 cells followed by IFNγ exposure; SPARCS qRT-PCR and cytokine profiling; details: for reactivation / de-repression of SPARCS ERVs: 5 μM for 6 days, then IFNγ 24 h
Procedure: For EZH2 inhibition experiments, H69 cells were treated with 5 μM GSK126 for 6 days. Drug was replenished every 3 days with both suspension and adherent cells carried each time. After the GSK126 treatment period, equal numbers of DMSO-treated and GSK126-treated cells were exposed to either H2O or 200 ng/mL IFN-γ for 24 hours before harvesting of RNA or conditioned media (CM).
(§2) Multiplex assays were performed utilizing the bead-based immunoassay approach Bio-Plex Pro™ Human Cytokine 40-plex Assay (Cat #171AK99MR2) on a Bio-plex 200 system (Cat #171000201) (Bio-Rad Laboratories, Hercules, CA) and the Human Cytokine/Chemokine Maganetic Bead Panel (Cat #HCYTMAG-60K-PX30) on a Luminex MAGPIX system (Merck Millipore, Billerica, MA). Conditioned media concentration levels [pg/ml] of each protein were derived from 5-parameter curve fitting models. Fold changes relative to the corresponding control were calculated and plotted as log 2FC. Lower and upper limits of quantitation (LLOQ/ULOQ) were imputed from standard curves for cytokines above or below detection.
(§3) Total cellular RNA was extracted using the miRNeasy Mini Kit (Qiagen, Hilden, Germany) according to manufacturer's instructions. After extraction, 1 μg total RNA was used to generate cDNA with the SuperScript III First-Strand Synthesis SuperMix for qRT-PCR kit (Thermo Fisher Scientific, Waltham, MA). Quantitative reverse transcription PCR (qRT-PCR) of the indicated genes was performed using SYBR green PCR Master Mix (Applied Biosystems, Foster City, CA) and the Applied Biosystems 7300 Fast real-time PCR system and software. The relative expression was normalized with the expression of the housekeeping gene 36B4.

A549 cells = experiment: Immunoblot of STING in KL cell lines with LKB1 reconstitution with or without DNMT inhibitor; details: A549 cells (KL DNMT high) with LKB1 reconstitution
Procedure: FIGS. 16A to 16C. FIG. 16A: Immunoblot of the indicated proteins in KL cell lines transduced with the indicated vector. FIG. 16B: Correlation between STING and DNMT1 expression in KL cell lines. FIG. 16C: Immunoblot of the indicated proteins in KL cell lines transduced with the indicated vector with or without 100 nM 5-aza-2′-deoxycytidine (DAC) treatment for 7 days.

TNBC cell lines = experiment: CXCL10 secretion by TNBC cell lines treated with STING agonist; details: all TNBC cell lines, relative to a control
Procedure: TNBC cell lines were also assayed for their responsiveness to the STING agonist AduroS100. Cells were treated with AduroS100 or a control and CXCL10 levels secreted into the supernatant were measured.

H69AR cells [3] = experiment: IFNγ pulsed H69AR cells chased in media with drug; pSTAT1 immunoblot, CXCL10/ERV qRT-PCR, CXCL10 ELISA; details: 10 min IFNγ pulse, 24 h chase, 1 μM
Procedure: For IFN pulse experiments, cells were pulsed 10 minutes with IFN-γ 200 ng/mL or 10 ng/mL), IFN-α 10 000 U/mL), or IFN-β 10 000 U/mL), extensively washed, and chased in fresh media for an additional 24, 48 or 72 hours. To test drug effects on gene expression or protein secretion, IFN-γ pulsed H69AR cells were treated with DMSO, 1 μM MRT67307 or 100 nM Ruxolitinib for 24, 48 and 72 hours. Proteome Profiler™ Human Cytokine Array Kit (#ARY005B) and CXCL10 ELISA (#DIP100) (R&D Systems, Minneapolis, MN), were performed according to manufacturer's instructions. For cytokine array, conditioned media (CM) from SCLC cells at basal conditions was collected after 48 and 72 hours. For CXCL10 ELISA, CM from IFN-γ pulsed cells was collected after 72 hours. Total cellular RNA was extracted using the miRNeasy Mini Kit (Qiagen, Hilden, Germany) according to manufacturer's instructions. After extraction, 1 μg total RNA was used to generate cDNA with the SuperScript III First-Strand Synthesis SuperMix for qRT-PCR kit (Thermo Fisher Scientific, Waltham, MA). Quantitative reverse transcription PCR (qRT-PCR) of the indicated genes was performed using SYBR green PCR Master Mix (Applied Biosystems, Foster City, CA) and the Applied Biosystems 7300 Fast real-time PCR system and software. The relative expression was normalized with the expression of the housekeeping gene 36B4.

[4] = tested on: H69AR cells, SPARCS high cell lines; experiment: IFN pulse-chase of SCLC and other cancer cell lines; qRT-PCR, immunoblot
Procedure: To test drug effects on gene expression or protein secretion, IFN-γ pulsed H69AR cells were treated with DMSO, 1 μM MRT67307 or 100 nM Ruxolitinib for 24, 48 and 72 hours.
as §1, §3

NSCLC PDOTS = experiment: Ex vivo culture of patient-derived organotypic tumor spheroids (PDOTS); cytokine profiling and viability; details: in contrast to NSCLC-2; for production of multiple cytokines/chemokines, especially CXCL10: NSCLC-1 PDOTS (SPARCS high features); for sensitization to ex vivo PD-1 blockade with nivolumab: NSCLC-1 PDOTS, viability Day 6
Source text: PDOTS from human NSCLC resection specimens were generating according to the recent publication^21. Briefly, fresh tumor specimens were minced and resuspended in media with collagenase type IV (Life Technologies, Carlsbad, CA). After digestion, samples were strained over 100 μm filter and 40 μm filters to generate S1 (>100 μm), S2 (40-100 μm), and S3 (<40 μm) spheroid fractions. S2 spheroid fraction was pelleted and resuspended in type I rat tail collagen (Corning, Corning, NY) at a concentration of 2.5 mg/mL. The spheroid-collagen mixture was then injected into the center gel region of the 3D microfluidic culture device. Collagen hydrogels containing PDOTS were hydrated with media and treated with anti-PD-1 (Nivolumab, 100 μg/mL), IFNγ (200 ng/mL), Poly (I:C) (0.5 μg/mL) or combination (Nivolumab+IFNγ Nivolumab+Poly (I:C)). The number of Live/Dead cells in each treatment condition was determined by Trypan Blue Exclusion method and plotted as percentage of viability.
as §2

H69AR cells [5] = experiment: Poly(I:C) transfection of H69AR cells; qRT-PCR; details: 72 h following transfection
Procedure: as §3
For Poly(I:C) dsRNA treatment experiments, H69ARsgCTRL and H69ARsgMAVS cells were plated in RPMI media, transfected with 0.5 μg/mL Poly(I:C) HMW (InvivoGen, Sand Diego, CA) using XtremeGene HP transfection reagent (Sigma-Aldrich, St. Louis, MO) and cultured for 72 hours. On day 3 after transfection, conditioned media was recovered and CXCL10 protein expression was quantified using Human CXCL10/IP-10 Quantikine ELISA kit (R&D Systems, Minneapolis, MN). RNA was extracted and expression levels of relevant genes were analyzed by qRT-PCR.

## CC[C@H](C)n1cc(C)c2c(C(=O)NCc3c(C)cc(C)[nH]c3=O)cc(-c3ccc(N4CCNCC4)nc3)cc21 [GSK126]
H69 cells [1]
  STING protein expression: induces STING protein expression
H69 cells [2]
  reactivation / de-repression of SPARCS ERVs: induced their reactivation
H69 cells [2]; listed as EZH2 inhibitor
  reactivation / de-repression of SPARCS ERVs: de-repressed the same SPARCS as in H69AR cells
H69 cells [2]; treatment over 6 days
  IFNγ induced cytokine secretion: enhanced

## Nc1ncn([C@H]2C[C@H](O)[C@@H](CO)O2)c(=O)n1 [DNMT inhibitor, 5-aza-2′-deoxycytidine]
A549 cells
  STING expression: able to restore STING expression

## Nc1ncnc2c1ncn2[C@@H]1O[C@@H]2COP(O)(=S)O[C@@H]3C(O)[C@@H](COP(O)(=S)O[C@H]2[C@H]1O)O[C@H]3n1cnc2c(N)ncnc21 (some centres unmarked) [AduroS100]
TNBC cell lines
  CXCL10 levels secreted into the supernatant: elevated levels; also recorded: increased CXCL10 production

## O=C(NCCCNc1nc(Nc2cccc(CN3CCOCC3)c2)ncc1C1CC1)C1CCC1 [MRT67307]
H69AR cells [3]
  effect on downstream CXCL10 expression: partially inhibited

## IFNα
[4]; H69AR cells, 10 min pulse with chase
  SPARCS upregulation (MLT1C49, MLT1A): SPARCS upregulation

## Poly(I:C)
NSCLC PDOTS
  production of multiple cytokines/chemokines, especially CXCL10: markedly enhanced; also recorded: markedly enhances CXCL10 production
  sensitization to ex vivo PD-1 blockade with nivolumab: sensitized; also recorded: sensitizes them to PD-1 blockade
H69AR cells [5]
  SPARCS upregulation: SPARCS upregulation
  induction of type I/II IFNs: Induction of type I/II IFNs was also confirmed

B1: IFNγ: Recombinant human IFN-γ protein from R&D Systems (protein, UniProt P01579 24-161, looked up)
Interferon gamma: QDPYVKEAENLKKYFNAGHSDVADNGTLFLGILKNWKEESDRKIMQSQIVSFYFKLFKNFKDDQSIQKSVETIKEDMNVKFFNSNKKKRDDFEKLTNYSVTDLNVQRKAIHELIQVMAELSPAAKTGKRKRSQMLFRG
NSCLC PDOTS
  production of multiple cytokines/chemokines, especially CXCL10: markedly enhanced
  sensitization to ex vivo PD-1 blockade with nivolumab: sensitized
[4]; H69AR but not H69 cells, pulse treatment
  pTBK1, pIRF3 and pSTAT1 activation: hyperactivated and sustained
[4]; H69AR cells, 10 minute pulse
  induction of TRIM22 and MLT1C49: marked induction
[4]; SPARCS high cells relative to SPARCS low cells, pulse treatment
  MLT1C49, CXCL10 and PD-L1 expression: significantly induced

From patent publication US11874276B2, “STING levels as a biomarker for cancer immunotherapy” (Dana-Farber Cancer Institute, Inc., priority 2018, dated 2024)
